Values quoted from earlier work in US11197842B2 (BIOGEN MA INC., priority 2014, dated 2021).
Where a name gives a salt, the structure may show the parent alone.

Conditions: species not stated

COC(=O)/C=C/C(=O)O [MMF, monomethyl fumarate]
half-life of MMF: approximately 1 hour
